What is called Ki is a dissociation constant, usually derived from enzyme kinetics or from competition with a known ligand. Read a low Ki as tighter binding.

Data on one compound can be found in article PMC3870792 (Neuropsychopharmacology, 2013).

For this assay, the target named is GABAA receptor α2 subunit (α2β3γ2 GABAAR) (Rattus norvegicus, UniProt P18508+P23576). Nature of the assay: [3H]Ro […]-4513 displacement on HEK293 membranes. It is filed as binding.
Chain of GABAA receptor α2 subunit (α2β3γ2 GABAAR) (P23576 29-451): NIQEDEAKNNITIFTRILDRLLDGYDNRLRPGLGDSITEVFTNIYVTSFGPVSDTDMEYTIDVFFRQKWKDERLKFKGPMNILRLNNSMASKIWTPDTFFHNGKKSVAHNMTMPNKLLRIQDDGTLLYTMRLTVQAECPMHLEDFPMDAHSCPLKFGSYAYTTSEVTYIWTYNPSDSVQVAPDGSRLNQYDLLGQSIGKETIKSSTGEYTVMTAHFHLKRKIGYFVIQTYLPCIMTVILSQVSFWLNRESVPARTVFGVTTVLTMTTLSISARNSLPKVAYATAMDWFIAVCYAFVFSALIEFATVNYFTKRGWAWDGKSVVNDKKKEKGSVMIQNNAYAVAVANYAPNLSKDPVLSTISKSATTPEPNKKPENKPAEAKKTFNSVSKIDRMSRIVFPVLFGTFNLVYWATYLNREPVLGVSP
Chain of GABAA receptor α2 subunit (α2β3γ2 GABAAR) (P18508 39-466): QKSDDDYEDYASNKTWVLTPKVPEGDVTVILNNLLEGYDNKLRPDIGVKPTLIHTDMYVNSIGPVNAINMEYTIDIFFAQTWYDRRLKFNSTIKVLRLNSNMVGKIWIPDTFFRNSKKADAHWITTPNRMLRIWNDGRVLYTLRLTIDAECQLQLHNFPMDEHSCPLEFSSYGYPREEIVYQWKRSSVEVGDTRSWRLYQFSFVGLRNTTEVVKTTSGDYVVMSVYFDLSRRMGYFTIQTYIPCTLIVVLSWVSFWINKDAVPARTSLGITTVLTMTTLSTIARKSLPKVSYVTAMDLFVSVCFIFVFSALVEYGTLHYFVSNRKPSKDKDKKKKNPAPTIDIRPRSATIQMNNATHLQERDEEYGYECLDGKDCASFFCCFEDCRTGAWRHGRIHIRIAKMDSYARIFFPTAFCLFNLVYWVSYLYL
Chain of GABAA receptor α2 subunit (α2β3γ2 GABAAR) (P63079 26-473 partner): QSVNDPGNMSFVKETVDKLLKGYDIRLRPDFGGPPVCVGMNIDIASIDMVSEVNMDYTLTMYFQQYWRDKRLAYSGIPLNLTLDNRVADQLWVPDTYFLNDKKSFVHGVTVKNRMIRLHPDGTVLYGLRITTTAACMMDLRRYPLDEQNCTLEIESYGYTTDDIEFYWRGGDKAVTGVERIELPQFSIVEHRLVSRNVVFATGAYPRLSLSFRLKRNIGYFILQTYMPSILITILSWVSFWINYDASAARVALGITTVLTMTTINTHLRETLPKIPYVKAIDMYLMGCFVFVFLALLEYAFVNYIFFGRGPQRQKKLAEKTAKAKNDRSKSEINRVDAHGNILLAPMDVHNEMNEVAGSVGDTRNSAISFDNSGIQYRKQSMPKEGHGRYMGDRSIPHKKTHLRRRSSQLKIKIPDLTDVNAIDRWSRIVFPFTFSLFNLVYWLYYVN

`C#Cc1ccc2c(c1)C(c1ccccn1)=NCc1c(C(=O)OCC)ncn1-2` [compound 2 in Rivas et al, 2009, ethyl 8-ethynyl-6-(pyridin-2-yl)-4H-benzo[f]imidazo[1,5-a][1,4]diazepine-3-carboxylate] returned a Ki of 221 ± 22 nM.
